From US7842698B2, “Pyridine methylene azolidinones and use thereof phosphoinositide inhibitors” (Merck Serono S.A., priority 2004, dated 2010)
Counter-ions that a name gives are not always drawn. Like-named read-outs stand apart in the source and are kept apart here.

Columns and labels:
[1] = molecular target: Human recombinant GST-PI3Kγ (Homo sapiens, UniProt P48736); test: High throughput PI3K lipid kinase assay (scintillation proximity assay, neomycin-coated SPA beads); type: biochemical; settings: [33P]γ-ATP, 180 minutes at room temperature
Text: a) High Throughput PI3K Lipid Kinase Assay (Binding Assay):
The efficacy of compounds of the invention in inhibiting the PI3K induced-lipid phosphorylation may be tested in the following binding assay.
The assay combines the scintillation proximity assay technology (SPA, Amersham) with the capacity of neomycin (a polycationic antibiotic) to bind phospholipids with high affinity and specificity. The Scintillation Proximity Assay is based on the properties of weakly emitting isotopes (such as ^3H, ^125I, ^33P). Coating SPA beads with neomycin allows the detection of phosphorylated lipid substrates after incubation with recombinant PI3K and radioactive ATP in the same well, by capturing the radioactive phospholipids to the SPA beads through their specific binding to neomycin.
To a 384 wells MTP containing 5 μl of the test compound of Formula (I) (solubilized in 6% DMSO; to yield a concentration of 100, 30, 10, 3, 1, 0.3, 0.1, 0.03, 0.01, 0.001 μM of the test compound), the following assay components are added. 1) 5 μl (58 ng) of Human recombinant GST-PI3Kγ (in Hepes 40 mM, pH 7.4, DTT 1 mM and ethyleneglycol 5%) 2) 10 μl of lipid micelles and 3) 10 μl of Kinase buffer ([^33P]γ-ATP 45 μM/60 n Ci, MgCl2 30 mM, DTT 1 mM, β-Glycerophosphate 1 mM, Na3VO4 100 μM, Na Cholate 0.3%, in Hepes 40 mM, pH 7.4). After incubation at room temperature for 180 minutes, with gentle agitation, the reaction is stopped by addition of 60 μl of a solution containing 100 μg of neomycin-coated PVT SPA beads in PBS containing ATP 10 mM and EDTA 5 mM. The assay is further incubated at room temperature for 60 minutes with gentle agitation to allow binding of phospholipids to neomycin-SPA beads. After precipitation of the neomycin-coated PVT SPA beads for 5 minutes at 1500× g, radioactive PtdIns(3)P is quantified by scintillation counting in a Wallac MicroBeta™ plate counter.
The values indicated in Table I below refer to the IC50 (nM) with respect to PI3Kγ, i.e. the amount necessary to achieve 50% inhibition of said target. Said values show a considerable inhibitory potency of thiazole compounds with regard to PI3Kγ.

[2] = test system: Akt/PKB phosphorylation in Raw 264-7 macrophages; test: Cell based ELISA to monitor PI3K inhibition: Akt/PKB phosphorylation in macrophages after stimulation with Complement 5a; settings: Mus musculus, RAW264.7, 50 nM Complement 5a for 5 minutes, inhibitors pretreated 20 minutes, phospho Serine 473 Akt, read-out: Cell Assay (P-Akt, Elisa) IC50
Protocol: b) Cell Based ELISA to Monitor PI3K Inhibition:
The efficacy of compounds of the invention in inhibiting the PI3K induced Akt/PKB phosphorylation may be tested in the following cell based assay.
Measurement of Akt/PKB phosphorylation in macrophages after stimulation with Complement 5a: Raw 264: Raw 264-7 macrophages (cultured in DMEM-F12 medium containing 10% Fetal Calf serum and antibiotics) are plated at 20′000 cells/well in a 96 MTP 24 h before cell stimulation. Previous to the stimulation with 50 nM of Complement 5a during 5 minutes, Cells are serum starved for 2 h, and pretreated with inhibitors for 20 minutes. After stimulation cells are fixed in 4% formaldehyde for 20 minutes and washed 3 times in PBS containing 1% Triton X-100 (PBS/Triton). Endogenous peroxidase is blocked by a 20 minutes incubation in 0.6% H2O2 and 0.1% Sodium Azide in PBS/Triton and washed 3 times in PBS/Triton. Cells are then blocked by 60 minutes incubation with 10% fetal calf serum in PBS/Triton. Next, phosphorylated Akt/PKB is detected by an overnight incubation at 4° C. with first antibody (anti phospho Serine 473 Akt IHC, Cell Signaling) diluted 800-fold in PBS/Triton, containing 5% bovine serum albumin (BSA). […] The reaction is stopped by addition of 50 μl of 1 M SO4H2 and absorbance is read at 450 nm. […]

Class I PI3-kinases = settings: Fruman et al., 1998, cited from earlier work
phospholipases = settings: cited from earlier work

Sequence of Human recombinant GST-PI3Kγ (P48736 whole entry): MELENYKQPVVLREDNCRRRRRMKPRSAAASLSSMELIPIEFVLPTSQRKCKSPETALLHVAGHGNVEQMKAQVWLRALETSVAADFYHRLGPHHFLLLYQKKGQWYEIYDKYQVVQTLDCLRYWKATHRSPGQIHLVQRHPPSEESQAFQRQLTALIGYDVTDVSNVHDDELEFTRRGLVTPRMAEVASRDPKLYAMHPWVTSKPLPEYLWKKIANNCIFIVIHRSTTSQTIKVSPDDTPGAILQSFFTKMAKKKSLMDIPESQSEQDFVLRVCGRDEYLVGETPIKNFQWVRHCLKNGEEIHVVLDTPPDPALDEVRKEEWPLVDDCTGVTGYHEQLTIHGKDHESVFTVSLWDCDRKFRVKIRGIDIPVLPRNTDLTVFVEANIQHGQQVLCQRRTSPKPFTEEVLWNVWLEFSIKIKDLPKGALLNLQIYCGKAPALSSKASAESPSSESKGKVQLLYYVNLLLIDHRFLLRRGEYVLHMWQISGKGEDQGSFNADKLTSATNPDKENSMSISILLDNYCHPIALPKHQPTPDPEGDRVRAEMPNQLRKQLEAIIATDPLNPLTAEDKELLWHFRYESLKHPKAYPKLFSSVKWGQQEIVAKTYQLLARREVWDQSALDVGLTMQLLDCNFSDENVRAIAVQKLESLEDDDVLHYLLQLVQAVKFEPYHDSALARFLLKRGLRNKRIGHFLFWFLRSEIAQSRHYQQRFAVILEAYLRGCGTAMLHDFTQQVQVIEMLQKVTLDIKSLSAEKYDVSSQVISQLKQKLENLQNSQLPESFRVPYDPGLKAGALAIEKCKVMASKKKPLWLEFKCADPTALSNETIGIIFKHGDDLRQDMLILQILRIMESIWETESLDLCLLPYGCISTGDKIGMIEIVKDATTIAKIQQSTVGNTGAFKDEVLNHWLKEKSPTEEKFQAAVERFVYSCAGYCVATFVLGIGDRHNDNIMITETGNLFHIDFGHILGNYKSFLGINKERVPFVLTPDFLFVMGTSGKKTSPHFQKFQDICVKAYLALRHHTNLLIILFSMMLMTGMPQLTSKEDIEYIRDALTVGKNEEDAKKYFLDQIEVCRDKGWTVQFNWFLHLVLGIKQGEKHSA

IC50 [1] [µM]	SMILES	other results
0.02	O=C1NC(=O)/C(=C/c2ccc3nccnc3n2)S1 [Example 4, 5-Pyrido[2,3-b]pyrazin-6-ylmethylene-thiazolidine-2,4-dione]	
0.035	O=C1NC(=O)/C(=C/c2ccc3occc3n2)S1 [Example 5, 5-Furo[3,2-b]pyridin-5-ylmethylene-thiazolidine-2,4-dione]	
0.01	COc1cc(OC)cc(-n2cnc3ccc(/C=C4\SC(=O)NC4=O)nc32)c1 [Example 8, (5Z)-5-{[3-(3,5-dimethoxyphenyl)-3H-imidazo[4,5-b]pyridin-5-yl]methylene}-1,3-thiazolidine-2,4-dione]	
0.007	CN(C)CCCC(=O)N1CCc2cc(-n3cnc4ccc(/C=C5\SC(=O)NC5=O)nc43)ccc21 [Example 12, (5Z)-5-[(3-{1-[4-(dimethylamino)butanoyl]-2,3-dihydro-1H-indol-5-yl}-3H-imidazo[4,5-b]pyridin-5-yl)methylene]-1,3-thiazolidine-2,4-dione]	

Second part, the compound before the results:

SMILES	IC50 [1] [µM]	other results
O=C1NC(=O)/C(=C/c2ccc3ncnc(N4CCCCC4)c3n2)S1 (as salt: potassium) [Example 1, (5Z)-5-{[4-(1-piperidinyl)pyrido[3,2-d]pyrimidin-6-yl]methylene}-1,3-thiazolidine-2,4-dione potassium salt]		melting point: 319 °C
O=C1NC(=O)/C(=C/c2ccc3ncnc(N4CCCCC4)c3n2)S1 [Example 1, (5Z)-5-{[4-(1-piperidinyl)pyrido[3,2-d]pyrimidin-6-yl]methylene}-1,3-thiazolidine-2,4-dione potassium salt]	0.004	IC50 [2]: < 0.01 µM
O=C1NC(=O)/C(=C/c2ccc3ncnc(N4CCC(C(F)(F)F)CC4)c3n2)S1 [Example 3, (5Z)-5-({4-[4-(trifluoromethyl)-1-piperidinyl]pyrido[3,2-d]pyrimidin-6-yl}methylene)-1,3-thiazolidine-2,4-dione potassium salt]	0.006	IC50 [2]: < 0.01 µM
O=C1NC(=S)SC1=Cc1ccc2ncnc(N3CCC(F)CC3)c2n1 [Example 6, 5-[4-(4-Fluoro-piperidin-1-yl)-pyrido[3,2-d]pyrimidin-6-ylmethylene]-2-thioxo-thiazolidin-4-one]	0.002	
O=c1cc(N2CCOCC2)oc2c(-c3ccccc3)cccc12 [LY294002]		IC50 (Class I PI3-kinases; LY294002, read-out: IC50 against each of these PI3-kinases (Class I)): 15 to 20 µM; inhibitory activity on phospholipases (phospholipases): some inhibitory activity
COC[C@H]1OC(=O)c2coc3c2[C@@]1(C)C1=C(C3=O)[C@@H]2CCC(=O)[C@@]2(C)C[C@H]1OC(C)=O [wortmannin]		IC50 (Class I PI3-kinases; wortmannin, read-out: IC50 against each of the various Class I PI3-kinases): 0.001 to 0.01 µM
